Experimental data published in paper PMC10728895, “Stapled Phd Peptides Inhibit Doc Toxin Induced Growth Arrest in Salmonella” (ACS Chemical Biology, 2023).
Positions of bridges follow the written chain, without caps; N, C: chain ends. Non-standard residues stand in square brackets, D forms with d. Residues, ends and D or L forms follow the SMILES beside them. S5 = C=CCCC[C@](C)(N)C(=O)O; Nle = CCCC[C@H](N)C(=O)O

How the values were obtained:
DocSTm toxin = conditions: DocSTm 5 μM, peptide 50 μM; for Average Tm of DocSTm in the presence of peptide: pH 8.0, average ± SD, replicates 3-48 (Table S3); for ΔTm (thermal shift) of DocSTm in the presence of peptide: SYPRO Orange 3×, 20 mM K2HPO4, 50 mM (NH4)2SO4, pH 8.0, average Tm with peptide minus average Tm of free DocSTm, mean ± SD
Method: The thermal shift assay was performed using a Mx3005P qPCR System (Agilent) collecting fluorescence data with a temperature ramp of 25 to 95 °C. Samples were prepared in a buffer containing 20 mM K2HPO4 and 50 mM (NH4)2SO4 at pH 8.0, with a final concentration of recombinant Doc protein at 5 μM and Phd peptides at 50 μM. SYPRO Orange dye (Sigma-Aldrich, 5000X stock in DMSO) was used to monitor protein denaturation in a final concentration of 3×. The final sample volume was 20 μL. Each condition was prepared in triplicate in each independent experiment. The melting curves were plotted using GraphPad Prism 9 (GraphPad Software, USA), and the melting temperatures were obtained by fitting the sigmoidal section of the curves to a Boltzmann sigmoid function. For the calculation of thermal shifts ΔTm, the average melting temperature of free DocSTm toxin as determined in the respective peptide measurement cycles was subtracted from the average melting temperature of DocSTm in the presence of the peptide (Table S3).

[1] = tested on: DocSTm (phosphorylation of EF-TuSTm); assay: Dot blot EF-Tu phosphorylation assay; format: biochemical, Salmonella Typhimurium; conditions: DocSTm 1 μM, EF-TuSTm 3 μM, peptide 10 μM to 5 nM (3-fold dilutions), 16 h RT, dot blot anti-phosphothreonine; compared at three times the DocSTm concentration; two independent experiments
Method: Samples were prepared in assay buffer [50 mM HEPES (pH 7.5), 25 mM (NH4)2SO4, 2 mM TCEP, 2 mM MgCl2, and 1 mM ATP] with a final concentration of recombinant Doc at 1 μM, recombinant EF-Tu at 3 μM, and varying concentrations of synthetic Phd peptides (final concentrations: 10 μM to 5 nM). EF-Tu (3 μM) in assay buffer was used as a negative control (no Doc and Phd peptide), while EF-Tu (3 μM) with Doc (1 μM) in assay buffer was used as a positive control (no Doc inhibitor). The final sample volume was 10 μL. Samples were incubated for 16 h at RT and subsequently spotted on a nitrocellulose membrane. Phosphorylated EF-Tu was detected by immunodecoration using a rabbit monoclonal antiphosphothreonine antibody (Abcam, ab218195) at 1:2000 dilution (1 h at 4 °C), followed by incubation with a goat antirabbit IgG (H + L) HRP conjugate antibody (Advansta) at 1:10,000 dilution (1 h at RT). Chemiluminescence was developed using the HRP Luminata Kit (Merck, WBLUR0100) and captured with an ImageQuant LAS4000 Western blot imaging system (GE HealthCare). Each peptide was tested in two independent experiments.

Structure (SMILES) | Average Tm of DocSTm in the presence of peptide (DocSTm toxin) | Inhibition of EF-TuSTm phosphorylation by DocSTm (concentration needed for full inhibition) [1] | ΔTm (thermal shift) of DocSTm in the presence of peptide (DocSTm toxin)
CCCC[C@H](NC(=O)[C@H](Cc1c[nH]c2ccccc12)NC(C)=O)C(=O)N[C@@H](CCCNC(=N)N)C(=O)N[C@@H](CC(=O)O)C(=O)N[C@@H](CCC(=O)O)C(=O)N[C@@H](Cc1ccccc1)C(=O)N[C@@H](CCCNC(=N)N)C(=O)N[C@@H](C)C(=O)N[C@H](C(=O)N[C@@H](CCCC)C(=O)N[C@@H](CCCNC(=N)N)C(=O)N[C@H](C(=O)N[C@@H](Cc1c[nH]cn1)C(=O)NCC(=O)N[C@@H](CC(N)=O)C(=O)N[C@@H](CCC(=O)O)C(=O)N[C@@H](CC(C)C)C(=O)N[C@@H](CCCNC(=N)N)C(=O)N[C@@H](CCC(=O)O)C(=O)N[C@@H](CC(C)C)C(=O)N[C@@H](C)C(=O)N[C@@H](CC(=O)O)C(=O)N[C@@H](CCCCN)C(=O)O)C(C)C)[C@@H](C)CC [Peptide 19] (Ac-W[Nle]RDEFRAI[Nle]RVHGNELRELADK-OH) | 62.5 ± 0.9 °C | fully inhibited | –
CCCC[C@H](NC(=O)[C@H](Cc1c[nH]c2ccccc12)NC(C)=O)C(=O)N[C@@H](CC(N)=O)C(=O)N[C@@H](CC(N)=O)C(=O)N[C@@H](CCC(=O)O)C(=O)N[C@@H](Cc1ccccc1)C(=O)N[C@@H](C)C(=O)N[C@@]1(C)CCCC=CCCC[C@@](C)(C(=O)N[C@@H](Cc2c[nH]cn2)C(=O)NCC(=O)N[C@@H](CCCNC(=N)N)C(=O)N[C@@H](CCC(N)=O)C(=O)N[C@@H](CC(C)C)C(=O)N[C@@H](CCCNC(=N)N)C(=O)N[C@@H](CCCNC(=N)N)C(=O)N[C@@H](CC(C)C)C(=O)N[C@@H](C)C(=O)N[C@@H](CCCNC(=N)N)C(=O)N[C@@H](CCCCN)C(=O)O)NC(=O)[C@H](C)NC(=O)[C@H](CCCC)NC(=O)[C@H]([C@@H](C)CC)NC1=O [Peptide 37] (Ac-W[Nle]NNEFA[S5]I[Nle]A[S5]HGRQLRRLARK-OH; staple 8-12) | 55.3 ± 1.5 °C | – | reduced stabilization
CCCC[C@H](NC(=O)[C@H](Cc1c[nH]c2ccccc12)NC(C)=O)C(=O)N[C@@H](CCCNC(=N)N)C(=O)N[C@@H](CC(N)=O)C(=O)N[C@@H](CCC(N)=O)C(=O)N[C@@H](Cc1ccccc1)C(=O)N[C@@H](C)C(=O)N[C@@H](C)C(=O)N[C@H](C(=O)N[C@@H](CCCC)C(=O)N[C@@H](CCCNC(=N)N)C(=O)N[C@H](C(=O)N[C@@H](Cc1c[nH]cn1)C(=O)NCC(=O)N[C@@]1(C)CCCC=CCCC[C@@](C)(C(=O)N[C@@H](CC(C)C)C(=O)N[C@@H](C)C(=O)N[C@@H](CC(N)=O)C(=O)N[C@@H](CCCCN)C(=O)O)NC(=O)[C@H](CCCNC(=N)N)NC(=O)[C@H](CC(C)C)NC(=O)[C@H](CCC(N)=O)NC1=O)C(C)C)[C@@H](C)CC [Peptide 23] (Ac-W[Nle]RNQFAAI[Nle]RVHG[S5]QLR[S5]LANK-OH; staple 15-19) | 57.5 ± 0.9 °C | – | –
CCCC[C@H](NC(=O)[C@H](Cc1c[nH]c2ccccc12)NC(C)=O)C(=O)N[C@@H](CC(=O)O)C(=O)N[C@@H](CC(=O)O)C(=O)N[C@@H](CCC(=O)O)C(=O)N[C@@H](Cc1ccccc1)C(=O)N[C@@H](C)C(=O)N[C@@H](C)C(=O)N[C@H](C(=O)N[C@@H](CCCC)C(=O)N[C@@H](C)C(=O)N[C@H](C(=O)N[C@@H](Cc1c[nH]cn1)C(=O)NCC(=O)N[C@@H](CC(N)=O)C(=O)N[C@@H](CCCNC(=N)N)C(=O)N[C@@H](CC(C)C)C(=O)N[C@@H](CCCNC(=N)N)C(=O)N[C@@H](CCC(=O)O)C(=O)N[C@@H](CC(C)C)C(=O)N[C@@H](C)C(=O)N[C@@H](CC(=O)O)C(=O)N[C@@H](CCCCN)C(=O)O)C(C)C)[C@@H](C)CC [Peptide 10] (Ac-W[Nle]DDEFAAI[Nle]AVHGNRLRELADK-OH) | 59.5 ± 0.3 °C | – | –
CCCC[C@H](NC(=O)[C@H](Cc1c[nH]c2ccccc12)NC(C)=O)C(=O)N[C@@H](CCCNC(=N)N)C(=O)N[C@@H](CCCNC(=N)N)C(=O)N[C@@H](CCC(=O)O)C(=O)N[C@@H](Cc1ccccc1)C(=O)N[C@@H](CCCNC(=N)N)C(=O)N[C@@H](CCCNC(=N)N)C(=O)N[C@H](C(=O)N[C@@H](CCCC)C(=O)N[C@@H](CCCNC(=N)N)C(=O)N[C@H](C(=O)N[C@@H](Cc1c[nH]cn1)C(=O)NCC(=O)N[C@@H](CCCNC(=N)N)C(=O)N[C@@H](CCC(=O)O)C(=O)N[C@@H](CC(C)C)C(=O)N[C@@H](CCCNC(=N)N)C(=O)N[C@@H](CCC(=O)O)C(=O)N[C@@H](CC(C)C)C(=O)N[C@@H](C)C(=O)N[C@@H](CC(=O)O)C(=O)N[C@@H](CCCCN)C(=O)O)C(C)C)[C@@H](C)CC [Peptide 15] (Ac-W[Nle]RREFRRI[Nle]RVHGRELRELADK-OH) | 57.8 ± 0.7 °C | – | 11–13 °C
CCCC[C@H](NC(=O)[C@H](Cc1c[nH]c2ccccc12)NC(C)=O)C(=O)N[C@@H](CC(=O)O)C(=O)N[C@@H](CC(=O)O)C(=O)N[C@@H](CCC(=O)O)C(=O)N[C@@H](Cc1ccccc1)C(=O)N[C@@H](C)C(=O)N[C@@H](CCCNC(=N)N)C(=O)N[C@H](C(=O)N[C@@H](CCCC)C(=O)N[C@@H](C)C(=O)N[C@H](C(=O)N[C@@H](Cc1c[nH]cn1)C(=O)NCC(=O)N[C@@H](CC(N)=O)C(=O)N[C@@H](CCC(=O)O)C(=O)N[C@@H](CC(C)C)C(=O)N[C@@H](CCCNC(=N)N)C(=O)N[C@@H](CCC(=O)O)C(=O)N[C@@H](CC(C)C)C(=O)N[C@@H](C)C(=O)N[C@@H](CC(=O)O)C(=O)N[C@@H](CCCCN)C(=O)O)C(C)C)[C@@H](C)CC [Peptide 6] (Ac-W[Nle]DDEFARI[Nle]AVHGNELRELADK-OH) | 67.3 ± 1.4 °C | – | –
CCCC[C@H](NC(=O)[C@H](Cc1c[nH]c2ccccc12)NC(C)=O)C(=O)N[C@@H](CC(=O)O)C(=O)N[C@@H](CC(=O)O)C(=O)N[C@@H](CCCNC(=N)N)C(=O)N[C@@H](Cc1ccccc1)C(=O)N[C@@H](C)C(=O)N[C@@H](C)C(=O)N[C@H](C(=O)N[C@@H](CCCC)C(=O)N[C@@H](C)C(=O)N[C@H](C(=O)N[C@@H](Cc1c[nH]cn1)C(=O)NCC(=O)N[C@@H](CC(N)=O)C(=O)N[C@@H](CCC(=O)O)C(=O)N[C@@H](CC(C)C)C(=O)N[C@@H](CCCNC(=N)N)C(=O)N[C@@H](CCC(=O)O)C(=O)N[C@@H](CC(C)C)C(=O)N[C@@H](C)C(=O)N[C@@H](CC(=O)O)C(=O)N[C@@H](CCCCN)C(=O)O)C(C)C)[C@@H](C)CC [Peptide 4] (Ac-W[Nle]DDRFAAI[Nle]AVHGNELRELADK-OH) | 56.8 ± 2.1 °C | – | –
CCCC[C@H](NC(=O)[C@H](Cc1c[nH]c2ccccc12)NC(C)=O)C(=O)N[C@@H](CC(=O)O)C(=O)N[C@@H](CC(=O)O)C(=O)N[C@@H](CCC(=O)O)C(=O)N[C@@H](Cc1ccccc1)C(=O)N[C@@H](C)C(=O)N[C@@H](C)C(=O)N[C@H](C(=O)N[C@@H](CCCC)C(=O)N[C@@H](C)C(=O)N[C@H](C(=O)N[C@@H](Cc1c[nH]cn1)C(=O)NCC(=O)N[C@@H](CCCNC(=N)N)C(=O)N[C@@H](CCC(=O)O)C(=O)N[C@@H](CC(C)C)C(=O)N[C@@H](CCCNC(=N)N)C(=O)N[C@@H](CCC(=O)O)C(=O)N[C@@H](CC(C)C)C(=O)N[C@@H](C)C(=O)N[C@@H](CC(=O)O)C(=O)N[C@@H](CCCCN)C(=O)O)C(C)C)[C@@H](C)CC [Peptide 9] (Ac-W[Nle]DDEFAAI[Nle]AVHGRELRELADK-OH) | 72.3 ± 0.4 °C | – | –
CCCC[C@H](NC(=O)[C@H](Cc1c[nH]c2ccccc12)NC(C)=O)C(=O)N[C@@H](CC(=O)O)C(=O)N[C@@H](CC(=O)O)C(=O)N[C@@H](CCC(=O)O)C(=O)N[C@@H](Cc1ccccc1)C(=O)N[C@@H](C)C(=O)N[C@@H](C)C(=O)N[C@H](C(=O)N[C@@H](CCCC)C(=O)N[C@@H](C)C(=O)N[C@@H](CCCNC(=N)N)C(=O)N[C@@H](Cc1c[nH]cn1)C(=O)NCC(=O)N[C@@H](CC(N)=O)C(=O)N[C@@H](CCC(=O)O)C(=O)N[C@@H](CC(C)C)C(=O)N[C@@H](CCCNC(=N)N)C(=O)N[C@@H](CCC(=O)O)C(=O)N[C@@H](CC(C)C)C(=O)N[C@@H](C)C(=O)N[C@@H](CC(=O)O)C(=O)N[C@@H](CCCCN)C(=O)O)[C@@H](C)CC [Peptide 8] (Ac-W[Nle]DDEFAAI[Nle]ARHGNELRELADK-OH) | 67.8 ± 0.1 °C | – | –
